The term IC50 denotes the concentration that gives 50% inhibition. A higher IC50 goes with a need for much substance.

Experiment in all cases: fluorogenic JMJD demethylase assay kit, biotinylated histone H3 peptide substrate
Holding throughout (type): biochemical

The target in one experiment is T1, JMJD2C (Homo sapiens, UniProt Q9H3R0).
T1 construct: gene KDM4C
T1 sequence (Q9H3R0 1-1056): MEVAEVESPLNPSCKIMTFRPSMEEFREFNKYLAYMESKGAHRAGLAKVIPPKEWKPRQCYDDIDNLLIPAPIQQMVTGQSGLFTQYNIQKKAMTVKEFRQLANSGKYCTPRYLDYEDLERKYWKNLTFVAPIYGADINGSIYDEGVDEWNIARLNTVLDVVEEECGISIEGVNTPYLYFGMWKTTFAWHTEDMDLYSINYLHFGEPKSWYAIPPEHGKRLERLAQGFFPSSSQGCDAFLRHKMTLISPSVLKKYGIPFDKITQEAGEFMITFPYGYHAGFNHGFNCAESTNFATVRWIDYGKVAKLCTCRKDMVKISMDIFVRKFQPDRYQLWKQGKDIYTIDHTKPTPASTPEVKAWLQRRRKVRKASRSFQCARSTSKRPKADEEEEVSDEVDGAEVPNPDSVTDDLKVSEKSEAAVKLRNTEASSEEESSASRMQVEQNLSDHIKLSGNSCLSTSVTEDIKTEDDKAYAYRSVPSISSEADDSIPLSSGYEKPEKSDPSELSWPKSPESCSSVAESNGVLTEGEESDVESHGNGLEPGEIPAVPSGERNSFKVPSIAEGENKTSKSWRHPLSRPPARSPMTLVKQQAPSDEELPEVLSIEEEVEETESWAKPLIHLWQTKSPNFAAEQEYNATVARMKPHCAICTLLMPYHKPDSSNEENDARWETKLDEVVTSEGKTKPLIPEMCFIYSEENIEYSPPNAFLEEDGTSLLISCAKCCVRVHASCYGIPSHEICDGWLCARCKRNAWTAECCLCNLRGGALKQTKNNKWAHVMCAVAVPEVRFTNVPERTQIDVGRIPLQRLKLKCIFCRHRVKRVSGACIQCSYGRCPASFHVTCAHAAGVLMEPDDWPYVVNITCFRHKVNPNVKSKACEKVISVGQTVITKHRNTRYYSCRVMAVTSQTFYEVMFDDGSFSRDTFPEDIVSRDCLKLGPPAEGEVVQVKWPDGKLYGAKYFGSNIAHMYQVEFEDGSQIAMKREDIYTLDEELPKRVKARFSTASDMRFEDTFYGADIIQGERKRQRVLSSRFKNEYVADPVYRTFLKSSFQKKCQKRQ

The next experiment addresses T2, JMJD2B (Homo sapiens, UniProt O94953).
T2 construct: gene KDM4B
T2 sequence (O94953 1-1096): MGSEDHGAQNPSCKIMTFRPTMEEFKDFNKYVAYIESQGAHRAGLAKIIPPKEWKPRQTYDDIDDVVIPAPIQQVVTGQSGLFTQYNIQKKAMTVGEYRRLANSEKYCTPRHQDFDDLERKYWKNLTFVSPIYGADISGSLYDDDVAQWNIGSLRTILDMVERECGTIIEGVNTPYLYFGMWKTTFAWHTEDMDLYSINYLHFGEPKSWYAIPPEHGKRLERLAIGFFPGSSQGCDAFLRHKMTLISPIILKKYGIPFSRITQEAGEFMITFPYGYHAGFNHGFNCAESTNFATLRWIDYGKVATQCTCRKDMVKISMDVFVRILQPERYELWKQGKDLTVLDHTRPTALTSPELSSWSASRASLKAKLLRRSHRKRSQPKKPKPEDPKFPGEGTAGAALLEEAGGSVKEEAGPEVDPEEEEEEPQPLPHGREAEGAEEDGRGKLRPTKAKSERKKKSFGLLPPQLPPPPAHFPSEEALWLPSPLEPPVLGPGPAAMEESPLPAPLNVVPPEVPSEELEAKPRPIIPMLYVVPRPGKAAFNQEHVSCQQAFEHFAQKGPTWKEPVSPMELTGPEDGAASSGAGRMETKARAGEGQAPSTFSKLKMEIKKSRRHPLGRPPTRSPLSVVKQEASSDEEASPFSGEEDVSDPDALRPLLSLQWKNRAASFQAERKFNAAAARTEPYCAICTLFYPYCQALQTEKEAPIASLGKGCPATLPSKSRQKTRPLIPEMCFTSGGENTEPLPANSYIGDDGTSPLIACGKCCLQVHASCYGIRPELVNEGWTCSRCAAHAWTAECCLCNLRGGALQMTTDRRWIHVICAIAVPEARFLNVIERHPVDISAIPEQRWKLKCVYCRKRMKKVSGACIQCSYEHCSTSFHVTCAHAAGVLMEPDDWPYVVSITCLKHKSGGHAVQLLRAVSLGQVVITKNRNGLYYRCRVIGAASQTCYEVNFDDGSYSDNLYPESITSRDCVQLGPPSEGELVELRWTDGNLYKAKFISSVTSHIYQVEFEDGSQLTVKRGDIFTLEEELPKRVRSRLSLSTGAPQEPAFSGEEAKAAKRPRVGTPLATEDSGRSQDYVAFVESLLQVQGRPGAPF
The text has this: IC50 values are mean ± SEM

The next experiment has as its target T3, JMJD2A (Homo sapiens, UniProt O75164).
T3 construct: gene KDM4A
T3 sequence (O75164 2-1064): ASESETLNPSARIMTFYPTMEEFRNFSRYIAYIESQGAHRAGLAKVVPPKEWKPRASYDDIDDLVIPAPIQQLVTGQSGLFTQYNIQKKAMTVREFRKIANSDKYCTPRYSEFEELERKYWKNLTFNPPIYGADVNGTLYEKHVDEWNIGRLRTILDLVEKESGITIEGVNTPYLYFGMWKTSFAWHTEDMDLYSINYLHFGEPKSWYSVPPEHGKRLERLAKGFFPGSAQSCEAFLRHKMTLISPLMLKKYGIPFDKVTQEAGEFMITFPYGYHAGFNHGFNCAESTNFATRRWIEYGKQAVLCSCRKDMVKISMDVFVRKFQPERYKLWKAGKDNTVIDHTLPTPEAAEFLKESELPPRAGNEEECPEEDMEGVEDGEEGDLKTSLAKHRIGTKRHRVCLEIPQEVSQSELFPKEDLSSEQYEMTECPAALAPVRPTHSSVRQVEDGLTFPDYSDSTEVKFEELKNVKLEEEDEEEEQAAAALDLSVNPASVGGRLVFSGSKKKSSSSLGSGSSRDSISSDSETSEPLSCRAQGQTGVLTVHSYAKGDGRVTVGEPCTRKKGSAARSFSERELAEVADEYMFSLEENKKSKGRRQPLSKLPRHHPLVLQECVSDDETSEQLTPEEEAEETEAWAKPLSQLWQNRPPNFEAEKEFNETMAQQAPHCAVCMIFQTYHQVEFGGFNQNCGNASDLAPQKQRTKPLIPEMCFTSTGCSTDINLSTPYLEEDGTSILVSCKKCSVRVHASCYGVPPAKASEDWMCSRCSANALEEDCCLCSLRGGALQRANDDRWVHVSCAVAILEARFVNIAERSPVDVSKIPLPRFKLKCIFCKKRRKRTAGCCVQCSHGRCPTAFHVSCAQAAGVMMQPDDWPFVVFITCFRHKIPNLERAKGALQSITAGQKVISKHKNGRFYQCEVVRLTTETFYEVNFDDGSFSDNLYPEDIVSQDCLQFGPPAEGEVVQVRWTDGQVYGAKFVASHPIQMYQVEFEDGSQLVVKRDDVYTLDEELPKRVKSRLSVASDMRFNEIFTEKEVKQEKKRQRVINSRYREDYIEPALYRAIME

The structures appear in SMILES notation.

Take `O=Cc1ccc(O)c(O)c1` [PA, 3,4-dihydroxybenzaldehyde]: the IC50 was 33.7 ± 7.8 µM on JMJD2C, 38.6 ± 10 µM against JMJD2B and 11.6 ± 1.5 µM on JMJD2A.

(Values after publication PMC3551771, “Pharmacological modulation of histone demethylase activity by a small molecule isolated from subcritical water extracts of Sasa senanensis leaves prolongs the lifespan of Drosophila melanogaster” (BMC Complementary and Alternative Medicine, 2012).)
